Results: publication PMC8930249, “Elucidating the Novel Mechanism of Ligustrazine in Preventing Postoperative Peritoneal Adhesion Formation” (Oxidative Medicine and Cellular Longevity, 2022)

Target: T1, PPARγ (Homo sapiens, UniProt P37231)
T1 construct: gene PPARG; recombinant His-tagged PPARγ (pET10), wild type
T1 sequence (P37231 1-505): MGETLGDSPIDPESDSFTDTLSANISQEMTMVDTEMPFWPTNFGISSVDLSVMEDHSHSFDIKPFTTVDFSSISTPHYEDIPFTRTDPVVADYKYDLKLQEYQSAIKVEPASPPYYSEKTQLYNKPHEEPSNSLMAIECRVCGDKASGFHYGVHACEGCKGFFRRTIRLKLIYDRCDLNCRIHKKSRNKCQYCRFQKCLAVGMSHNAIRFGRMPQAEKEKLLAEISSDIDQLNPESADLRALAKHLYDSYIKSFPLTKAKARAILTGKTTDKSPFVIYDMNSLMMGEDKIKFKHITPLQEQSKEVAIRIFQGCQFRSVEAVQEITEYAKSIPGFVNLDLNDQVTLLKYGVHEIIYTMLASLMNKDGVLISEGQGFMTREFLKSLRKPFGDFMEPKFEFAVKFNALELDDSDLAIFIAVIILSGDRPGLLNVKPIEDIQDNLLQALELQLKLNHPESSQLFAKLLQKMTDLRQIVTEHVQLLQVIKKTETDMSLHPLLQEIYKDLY
Assay: biolayer interferometry (Octet RED […]), Ni-NTA immobilised His-tagged protein
Assay type: binding

- Kd: 39.4 µM
Compound: Cc1nc(C)c(C)nc1C [Ligustrazine]
